Usually IC50 stands for the concentration at which inhibition is half-maximal.

The text below walks through data of US8632825B2, “Anti-tumoural effects of cannabinoid combinations” (GW Pharma Limited, priority 2008, dated 2014).

Where a SMILES comes first, the peptide text is derived from it. The star is where a group is joined. Cbz = O=C(OCc1ccccc1)*; CH2F = FC*

In assay [1] the test system is human U87 MG astrocytoma cells. Nature of the assay: Cell viability of human U87 MG astrocytoma cells in culture. Type of assay: cell-based. The settings on record: U-87 MG, pure cannabinoids. The protocol:
Tetrahydrocannabinol (THC) and cannabidiol (CBD) in the form of cannabis plant extracts were dissolved in ethanol to a concentration of 100 mM this was stored at −20° C. until required.
Before use the cannabis plant extracts were further diluted to the desired concentration, ensuring that the concentration of ethanol was below 0.001%.
U87 human glioma cells were used throughout this experiment. The cells were maintained at 37° C. in a humidified atmosphere with 5% CO2 and 95% air.
Cells were cultured in a 75 cm^2 culture flask in Dulbecco's Modified Eagle Medium (DMEM), which had been supplemented with 4 mM L-glutamine, 100 units/ml penicillin, […], 1% sodium pyruvate, 1% non-essential amino acids and 10% heat-inactivated fetal bovine serum.
The viability of the human U87 MG astrocytoma cells were examined at various cannabinoid concentrations. The THC and CBD extracts were compared against pure THC and CBD.
The methods used were as described in Example 1 above.

The subject of assay [2] is U87MG cells. Kind of assay: Induced cell death with ATG1 silencing or pan-caspase inhibition. The settings on record: pan-caspase inhibitor; FIG. 3c.
Assay [3] concerns Human U87 MG astrocytoma cells xenografted to nude mice. Kind of assay: Tumour volume of U87 MG xenografts in nude mice. Type of assay: in vivo. The settings on record: following 15 days of treatment, 15 mg/kg per day peritumourally. The protocol: Human U87 MG astrocytoma cells were xenografted to nude mice and the test compounds were injected peritumourally at a concentration of 15 mg/kg per day.

`C=C(C)[C@@H]1CCC(C)=C[C@H]1c1c(O)cc(CCCCC)cc1O` [CBD, cannabidiol] displayed an IC50 in assay [1] of 0.47 µM.
As to `CC(NC(=O)C(NC(=O)OCc1ccccc1)C(C)C)C(=O)NC(CC(=O)O)C(=O)CF` (stereo not drawn) [Z-VAD] (Cbz-Val-Ala-Asp-CH2F; configuration not given here), the induced cell death result in assay [2] is on record as “prevent induced cell death”.
Regarding `CCCCCc1cc(O)c2c(c1)OC(C)(C)[C@@H]1CCC(C)=C[C@@H]21` [THC, tetrahydrocannabinol], the “Tumour volume relative to zero time” value in assay [3] stood at 5.1 ± 0.4. In assay [1], this molecule registered a 50% inhibitory concentration (IC50) of 0.37 µM.
